Results reported in patent publication US20240016788A1, “PHARMACEUTICAL COMPOSITION FOR PREVENTING OR TREATING DIABETIC AND POSTMENOPAUSAL OSTEOPOROSIS, CONTAINING ADIPORON” (PnP Biopharm Co., Ltd., priority 2020, published 2024).

Assays:
Format in all cases: in vivo
[1] = tested on: type 2 diabetic db/db mice; assay: Body weight, blood biochemistry and 24-hour urine oxidative stress in diabetic osteoporosis model db/db mice
Protocol: A leptin receptor-defective type 2 diabetic animal model (db/db mice) and a normal control group (db/m mice) were used, and the experiment was performed by dividing into 4 groups as follows: non-diabetic control group (dm cont, n=8), non-diabetic adiporon treatment group (dm+AdipoR, n=8), diabetic control group (db cont, n=8) and diabetic adiporon treatment group (db+AdipoR, n=8). The control group was fed a normal diet, and the adiporon treatment group was fed a diet comprising adiporon (30 mg/kg/day) for 4 weeks from 16 weeks of age. During the experiment, body weight was measured every week, fasting blood glucose was measured using an Accu-Chek meter (Roche Diagnostics, St. Louis, MO) every 2 weeks after blood was collected from the tail vein, and glycated hemoglobin (HbA1c) was measured every 4 weeks using a […] automatic analyzer (Bayer healthcare LLC, IN) after blood was collected from the tail vein. The temperature and humidity of the breeding room were maintained at 20˜25° C. and 50˜60%, respectively, and the lights were turned on and off at 12-hour intervals. In both experiments, blood collected from each mouse was allowed to stand at room temperature for 30 minutes, and then centrifuged at 3000 rpm for 15 minutes to obtain serum. Blood levels of tartrate-resistant acid phosphatase (TRAP/ACP5) and osterocalcin concentration were measured by ELISA. In addition, 8-hydroxy-deoxyguanosine, a DNA damage marker caused by oxidative stress, and isoprostane, a marker of oxidative stress caused by lipid peroxidation caused by free fatty acids, and deoxypyridinoline (DPP), which indicates the function of osteoclasts, were measured in 24-hour urine concentrations by ELISA method.

[2] = tested on: ovariectomized C57BL/6 mice; assay: Micro-CT of ilium (femur) and lumbar vertebra 5, ovariectomized mice; settings: 6 weeks
Protocol: 7 weeks after ovariectomization or sham surgery of 7-week-old C57BL/6 mice, normal feed group (adiporon non-administered group; control group) administration group, 2.5 mg/kg day or 25 mg/kg day, respectively Feed comprising adiporon was consumed for 6 weeks from 14 weeks of age. Body weight was measured every week during the experiment period, and the experiment was conducted after 6 weeks of administration. The imaging was performed with micro-CT (Skyscan 1172, Belgium), the tube voltage was 60 kV, the tube current was 167 uA, 0.5 mm aluminum filtration was used, and the pixel size was 5.9 μm. For the shooting angle, a 2-dimensional image was reconstructed with Nrecon Reconstruction (Skyscan, Belgium). For 3D image analysis, CTAn (Skyscan, Belgium) was used, images were obtained by rotating 360°, and exposure time was 440 ms. A total of 7 types of indicators were used in this invention. BMD (bone mineral density, bone density) was measured based on phantoms of 0.25 g/cm^3 and 0.75 g/cm^3. BV/TV (Bone volume/Total volume, percent bone volume, %) is the ratio of voxels representing the solid region out of the total voxels present in the binarized and surfaced volume of interest, and it means the ratio occupied by bone trabeculae within the volume of interest, and i.s (Interception surfaces, mm2) means the generation of new bone. i.s (Interception surfaces, mm^2) means the creation of new bone. BS/BV (Bone surface/Bone volume, bone specific surface, mm^−1) is the ratio of the voxel surface area to the number of voxels in the binarized solid region within the volume of interest and it means the ratio of the surface area of the trabecular bone to the volume of the trabecular bone. The lower the value, the higher the bone strength. Tb.Th (trabecular thickness, mm) is obtained by averaging the diameters of these spheres, after placing a sphere comprising the corresponding voxel for each voxel representing the solid region within the volume of interest so that the size of the sphere is the largest that includes only the solid region and it means the average thickness of the trabecular bone. After making it possible, it is obtained by averaging the diameters of these spheres, which means the average thickness of the trabecular bone. In the same way, using Tb.Sp (trabecular separation, mm), the average length between trabecular lines and Tb.N (trabecular number, mm^−1) were used to obtain the average number of trabecular lines.

[3] = tested on: ovariectomized C57BL/6 mice; assay: Growth plate staining (trichrome, Safranin O) of ilium, ovariectomized mice; settings: 6 weeks
Protocol: 7 weeks after ovariectomization or sham surgery of 7-week-old C57BL/6 mice, normal feed group (adiporon non-administered group; control group) administration group, 2.5 mg/kg day or 25 mg/kg day, respectively Feed comprising adiporon was consumed for 6 weeks from 14 weeks of age. Body weight was measured every week during the experiment period, and the experiment was conducted after 6 weeks of administration. […] Thereafter, after neutralization with 0.5M Phosphate buffer (pH 7.4), washing, and embedding in paraffin. Tissue sections were cut to a thickness of 5 μm, and hematoxylin and eosin staining (H&E staining), trichrome staining, and Safranin O staining were performed. In bone tissue, double immunofluorescence staining method was performed using anti-adiponectin receptor 1/2 antibody, anti-perilipin-1 antibody, anti-RANKL antibody, anti-TNF-α antibody, and ApopTag Fluorescein In Situ Apoptosis Detection Kit (Chemicon International, Temecula, CA) and expression was observed using a confocal microscope.

[4] = db/db mice (type 2 diabetic), adiporon 30 mg/kg/day in diet for 4 weeks, mean ± SD
[5] = db/db mice, adiporon 30 mg/kg/day, 4 weeks, result in words
[6] = vertebrae (lumbar vertebrae 5), adiporon 2.5 mg/kg day
[7] = vertebrae (lumbar vertebrae 5), adiporon 25 mg/kg day

**Q.** Which results are given for `Cl.O=C(COc1ccc(C(=O)c2ccccc2)cc1)NC1CCN(Cc2ccccc2)CC1` [adiporon]?
**A.** Body wt [1, 4]: 53 ± 4.8 g; Urinary 8-OHDG [1, 4]: 74.5 ± 19.6 ng/24 h; Urinary isoprostane [1, 4]: 19.3 ± 9.4 ng/24 h; Changes of body weight, blood glucose, glycated hemoglobin, blood total cholesterol, triglyceride, free fatty acid and blood adiponectin ([1]; db/db mice vs db/m, adiporon 30 mg/kg/day, 4 weeks, result in words): restored; 24-hour urine concentration of 8-hydroxy-deoxyguanosine (increase in db/db) [1, 5]: improved the index increase; 24-hour urine concentration of isoprostane (increase in db/db) [1, 5]: improved the index increase; Bone mineral density indicator (micro-CT) ([2]; ilium, adiporon 2.5 mg/kg day): increased and improved; Bone surface indicator (micro-CT) ([2]; ilium, adiporon 2.5 mg/kg day): increased and improved; Bone volume indicator (micro-CT) ([2]; ilium, adiporon 2.5 mg/kg day): increased and improved; Trabecular number indicator (micro-CT) ([2]; ilium, adiporon 2.5 mg/kg day): increased and improved; Trabecular thickness indicator (micro-CT) ([2]; ilium, adiporon 2.5 mg/kg day): increased and improved; Bone mineral density indicator (micro-CT) ([2]; ilium, adiporon 25 mg/kg day): increased and improved; Bone surface indicator (micro-CT) ([2]; ilium, adiporon 25 mg/kg day): increased and improved; Bone volume indicator (micro-CT) ([2]; ilium, adiporon 25 mg/kg day): increased and improved; Trabecular number indicator (micro-CT) ([2]; ilium, adiporon 25 mg/kg day): increased and improved; Trabecular thickness indicator (micro-CT) ([2]; ilium, adiporon 25 mg/kg day): increased and improved; Bone mineral density indicator (micro-CT) [2, 6]: increased and improved; Bone surface indicator (micro-CT) [2, 6]: increased and improved; Bone volume indicator (micro-CT) [2, 6]: increased and improved; Trabecular number indicator (micro-CT) [2, 6]: increased and improved; Trabecular thickness indicator (micro-CT) [2, 6]: increased and improved; Bone mineral density indicator (micro-CT) [2, 7]: increased and improved; Bone surface indicator (micro-CT) [2, 7]: increased and improved; Bone volume indicator (micro-CT) [2, 7]: increased and improved; Trabecular number indicator (micro-CT) [2, 7]: increased and improved; Trabecular thickness indicator (micro-CT) [2, 7]: increased and improved; Decreased thickness of the iliac growth plate ([3]; adiporon 2.5 mg/kg day): increased; Decreased thickness of the iliac growth plate ([3]; adiporon 25 mg/kg day): increased
